Results taken from patent US6812229B1, “Carbamate derivative and agricultural/horticultural fungicide” (Kumiai Chemical Industry Co., Ltd., priority 1999, dated 2004).

System: Septoria nodorum
Experiment: Test for preventive effect on Septoria leaf blotch of wheat
Format: in vivo
Details: wheat seedlings (Norin-61-go), two-leaf stage, 50 ppm active ingredient, 10 ml per pot, evaluated 10 days after inoculation with Septoria nodorum
From the text: [table] 10 Wheat seeds (variety: Norin-61-go) were sown in each plastic pot having a diameter of 6 cm, and grown in a greenhouse. […] Then, the seedlings were inoculated with Septoria nodorum […] controlled in a greenhouse. 10 Days after the inoculation, the total diseased area of the first leaves in each pot was observed and evaluated on the basis of the standards shown in Table 21.

| Structure (SMILES) | Evaluation (total diseased area of the first leaves) |
| --- | --- |
| COC(=O)NCc1cc(C(C)=NOCc2cccc(C(=O)OC)c2)ccc1Cl [A-278] | B (Diseased area of less than 5%) |
| CCCCON=C(C)c1ccc(Cl)c(CNC(=O)OC)c1 [A-52] | A (No diseased area) |
| COC(=O)NCc1cc(C(C)=NOCC2OCCO2)ccc1Cl [A-241] | B (Diseased area of less than 5%) |
| COC(=O)NCc1cc(C(C)=NOCc2ccccc2C#N)cc(C)c1Cl [A-356] | A (No diseased area) |
| COC(=O)NCc1cc(C(C)=NOCc2cccc(C)n2)ccc1F [A-430] | A (No diseased area) |
| COC(=O)NCc1cc(C(C#N)=NOCc2ccccc2)ccc1C [A-20] | B (Diseased area of less than 5%) |
| COC(=O)NCc1cc(C=NOCc2ccc(Cl)cc2)ccc1Cl [A-438] | B (Diseased area of less than 5%) |
| COC(=O)NCc1cc(C(C)=NOCc2cccc(C(F)(F)F)c2)cc(C)c1Cl [A-159] | A (No diseased area) |
| COC(=O)NCc1cc(C(C)=NOC(C)c2cccc(C)c2)ccc1Cl (stereo not drawn) [A-407] | A (No diseased area) |
| COC(=O)NCc1cc(C(C)=NOCc2ccccn2)ccc1C [A-333] | A (No diseased area) |
| COC(=O)NCc1cc(C(C)=NOCc2nc(C)cc(C)n2)ccc1Cl [A-413] | A (No diseased area) |
| COC(=O)NCc1c(C)c(C)c(C)c(C(C)=NOCc2ccccc2)c1C [A-381] | A (No diseased area) |
| COC(=O)NCc1cc(C(C)=NOCc2ccc3ccccc3n2)ccc1F [A-440] | B (Diseased area of less than 5%) |
| COC(=O)NCc1cc(C(C)=NOCc2cccc(C)[n+]2[O-])ccc1Cl [A-433] | B (Diseased area of less than 5%) |
| COC(=O)NCc1cc(C(C)=NOC(C)c2ccccc2)ccc1Cl (stereo not drawn) [A-216] | A (No diseased area) |
| CCC(=NOCc1cccc(OC)c1)c1ccc(Cl)c(CNC(=O)OC)c1 [A-304] | A (No diseased area) |
| COC(=O)NCc1cc(C(C)=NOCc2cccc(C#N)c2)ccc1F [A-428] | A (No diseased area) |
| COC(=O)NCc1cc(C(C)=NOCC2CC2)ccc1Cl [A-56] | B (Diseased area of less than 5%) |
| COC(=O)NCc1cc(C(C)=NOCc2cc(Cl)ccc2Cl)ccc1Cl [A-254] | A (No diseased area) |
| CCC(=NOCc1ccccc1C(F)(F)F)c1ccc(Cl)c(CNC(=O)OC)c1 [A-297] | B (Diseased area of less than 5%) |
| COC(=O)NCc1cc(C(C)=NOCc2ccccc2C(F)(F)F)ccc1C [A-314] | A (No diseased area) |
| COC(=O)NCc1cc(C(C)=NOCc2ccc(C)cn2)ccc1Cl [A-334] | A (No diseased area) |
| COC(=O)NCc1cc(C(C)=NOCc2cccc(Cl)c2)ccc1F [A-371] | A (No diseased area) |
| COC(=O)NCc1cc(C(C)=NOCc2ccccc2Cl)ccc1F [A-325] | A (No diseased area) |

| Structure (SMILES) | Evaluation (total diseased area of the first leaves) |
| --- | --- |
| COC(=O)NCc1cc(C(=NOCc2ccccc2Cl)C2CC2)ccc1Cl [A-341] | A (No diseased area) |
| COC(=O)NCc1cc(C(C)=NOCC=Cc2ccccc2)ccc1Cl [A-201] | A (No diseased area) |
| COC(=O)NCc1cc(C(C)=NOCc2cccc(OC)c2)cc(C)c1Cl [A-157] | A (No diseased area) |
| COC(=O)NCc1cc(C(C)=NOCc2cccc(Cl)c2Cl)ccc1Cl [A-252] | A (No diseased area) |
| COC(=O)NCc1cc(C(C)=NOCC(=O)c2ccc(OC)cc2)ccc1Cl [A-404] | A (No diseased area) |
| CON=C(C)CON=C(C)c1ccc(C)c(CNC(=O)OC)c1 [A-368] | A (No diseased area) |
| COC(=O)NCc1cccc(C(C)=NOCc2ccc(C)cc2)c1 [A-345] | B (Diseased area of less than 5%) |
| COC(=O)NCc1cc(C(C)=NOCc2cccc(C)n2)ccc1Cl (single isomer, unassigned) [A-286] | A (No diseased area) |
| COC(=O)NCc1cc(C(C)=NOC2C=CC(C(Cl)(Cl)Cl)C2)ccc1Cl (stereo not drawn) [A-444] | B (Diseased area of less than 5%) |
| COC(=O)NCc1cc(C(C)=NOCCc2ccccc2)ccc1C [A-369] | A (No diseased area) |
| COC(=O)NCc1cc(C(C)=NOCc2cccs2)ccc1Cl [A-415] | A (No diseased area) |
| COC(=O)NCc1cc(C(C)=NOCc2cccc(C#N)n2)ccc1Cl [A-396] | A (No diseased area) |
| COC(=O)NCc1cc(C(C)=NOCc2ccc3ccccc3c2)ccc1Cl [A-248] | B (Diseased area of less than 5%) |
| COC(=O)NCc1cc(C(C)=NOCc2ccccc2OC)ccc1Cl [A-93] | A (No diseased area) |
| COC(=O)NCc1cc(C(C)=NOCc2cccc(C(F)(F)F)c2)ccc1F [A-375] | B (Diseased area of less than 5%) |
| COC(=O)NCc1cc(C(C)=NOC(C)c2ccc(Cl)cc2)ccc1Cl (stereo not drawn) [A-311] | A (No diseased area) |
| COC(=O)NCc1cccc(C(C)=NOCc2cccc(C(F)(F)F)c2)c1 [A-349] | A (No diseased area) |
| COC(=O)NCc1cccc(C(C)=NOCc2ccccc2Cl)c1 [A-338] | A (No diseased area) |
| COC(=O)NCc1cc(C(=NOCc2ccccn2)C2CC2)ccc1Cl [A-405] | A (No diseased area) |
| CCC(=NOCc1ccccn1)c1ccc(Cl)c(CNC(=O)OC)c1 [A-305] | A (No diseased area) |
| COC(=O)NCc1cccc(C(C)=NOCc2ccccc2F)c1 [A-398] | A (No diseased area) |
| COC(=O)NCc1cc(C(C)=NOCc2cccc(Cl)c2)ccc1C [A-364] | A (No diseased area) |
| COC(=O)NCc1cc(C(C)=NOCc2ccccc2Cl)ccc1C [A-294] | B (Diseased area of less than 5%) |
| COC(=O)NCc1cc(C(C)=NOCc2cccc(C)c2)ccc1F [A-373] | A (No diseased area) |

| Structure (SMILES) | Evaluation (total diseased area of the first leaves) |
| --- | --- |
| C=CCCON=C(C)c1ccc(Cl)c(CNC(=O)OC)c1 [A-198] | A (No diseased area) |
| COC(=O)NCc1cccc(C(C)=NOCc2ccccc2C)c1 [A-343] | A (No diseased area) |
| COC(=O)NCc1cc(C(C)=NOCc2nc(C(F)(F)F)cs2)ccc1Cl [A-432] | A (No diseased area) |
| COC(=O)NCc1cc(C(C)=NOCc2ccccc2C#N)ccc1Cl [A-220] | A (No diseased area) |
| COC(=O)NCc1cc(C(C)=NOCc2cscn2)ccc1Cl [A-416] | A (No diseased area) |
| COC(=O)NCc1cc(C(C)=NOCC(C)C)ccc1Cl [A-54] | A (No diseased area) |
| COC(=O)NCc1cc(C(C)=NOC(C)c2ccccc2Cl)ccc1Cl (stereo not drawn) [A-309] | B (Diseased area of less than 5%) |
| COC(=O)NCc1cccc(C(C)=NOCc2ccc(Cl)cc2)c1 [A-340] | B (Diseased area of less than 5%) |
| COC(=O)NCc1cccc(C(C)=NOCc2cccc(Cl)c2Cl)c1 [A-386] | B (Diseased area of less than 5%) |
| COC(=O)NCc1cc(C(C)=NOCc2ccc(Cl)c(Cl)c2)ccc1Cl [A-256] | A (No diseased area) |
| CON=C(C)C(ON=C(C)c1ccc(Cl)c(CNC(=O)OC)c1)C(C)=NOC (stereo not drawn) [A-412] | A (No diseased area) |
| COC(=O)NCc1cc(C(C)=NOC(C)c2ccc(Cl)cc2)ccc1F (stereo not drawn) [A-380] | A (No diseased area) |
| COC(=O)NCc1cc(C(C)=NOCc2cc(C)ccn2)ccc1Cl [A-370] | A (No diseased area) |
| COC(=O)NCc1cc(C(C)=NOCc2ccccc2Cl)ccc1Cl [A-207] | A (No diseased area) |
| COC(=O)NCc1cc(C(C#N)=NOCc2ccccc2Cl)ccc1C [A-21] | A (No diseased area) |
| COC(=O)NCc1cc(C(C#N)=NOCc2ccccc2)ccc1Cl [A-7] | A (No diseased area) |
| COC(=O)NCc1cc(C(C)=NOCc2cccc(Cl)c2)ccc1Cl [A-208] | B (Diseased area of less than 5%) |
| COC(=O)NCc1cc(C(C)=NOCC(F)(F)F)ccc1Cl [A-70] | A (No diseased area) |
| COC(=O)NCc1cccc(C(C)=NOCc2cccc(C)c2)c1 [A-344] | A (No diseased area) |
| COC(=O)NCc1cc(C(C)=NOCc2ccc(C(F)(F)F)cc2)cc(C)c1Cl [A-160] | B (Diseased area of less than 5%) |
| COC(=O)NCc1cc(C(C)=NOCc2ccccc2C)ccc1C [A-295] | B (Diseased area of less than 5%) |
| COC(=O)NCc1cc(C(C)=NOCc2ccccc2F)ccc1C [A-342] | A (No diseased area) |
| COC(=O)NCc1cc(C(C)=NOCc2ccccc2C)ccc1F [A-327] | A (No diseased area) |
| COC(=O)NCc1cccc(C(C)=NOCc2ccc(Cl)cc2Cl)c1 [A-387] | B (Diseased area of less than 5%) |
